Patent US20030180339A1, “Topical treatment of skin” (priority 2002, published 2003)

System: sebum
Test: Oil reduction potential of moisturising gels, blinded randomised study in India, Sebumeter SM810 (Example 34)
Type: in vivo, human
Method: A study was conducted on 37 normal volunteers in India to determine the oil reduction potential of moisturising gels containing sebum reduction agents.
This study was a blinded, randomised study comparing 2 test gels (containing Cedar wood and Poplar bud) with standard preparation (containing Elubiol).
Women volunteers between the age of 17 and 19 years were screened by measuring sebumeter readings of the left forehead using a Sebumeter SM810. Those volunteers had subumeter reading of […] or above.
These volunteers were instructed to avoid any other face cream, face wash or any other cosmetics during the 8 weeks of the study. After recruitment, volunteers were instructed to use the face wash for the first 2 weeks. This period was considered as the conditioning period.
A baseline sebumeter reading was taken at the end of the conditioning period on 4 sites i.e. left forehead, left cheek, right forehead, and right cheek. Tubes containing the test medicines (which were coded and randomly allocated to each site) were dispensed to the volunteers. Each volunteer was given two test gels, one for left side of the face and the other for right side of the face. […]
The volunteer was requested to make a note of application of face wash and face cream daily on the given diary sheets. Sebumeter readings were taken 3 weeks and 6 weeks later.

Compound: CCOC(=O)N1CCN(c2ccc(OC[C@H]3CO[C@](Cn4ccnc4)(c4ccc(Cl)cc4Cl)O3)cc2)CC1 [Elubiol, dichlorophenyl-imidazoltioxolan]
- effect on sebumeter readings, comparison between treatments (at 6 weeks): improved
- fall in the sebum reading at 6 weeks as compared to 3 weeks (gel twice a day): significantly greater fall
